Earlier results as cited in patent US20080069871A1, “H[…] DETERRENT DELIVERY SYSTEM” (priority 2006, published 2008).

Settings: stated as reason for use as model drug

In the case of `Cc1ncc([N+](=O)[O-])n1CCO` [metronidazole, Metronidazole], the “solubility in water and aqueous ethanol solutions” value is given as “highly soluble”.
